Measurements: PubChem BioAssay AID248 (DTP/NCI, 2004)
Values joined by “and” are separate entries in the source; they are usually repeats but may differ in a detail not shown here. Identical values can stand only once. Inconclusive results and toxic doses are left out. Cut-off read from the data, not from the text of the source: active = T/C of 150% or more; inactive = T/C below 125%.

Tested on: L1210 leukemia ip in BDF1 mice, survival T/C
Assay: NCI In Vivo Anticancer Drug Screen. Data for tumor model L1210 Leukemia (intraperitoneal) in B6D2F1 (BDF1) mice
Details: endpoint: mean survival time, higher = longer survival
Summary of the method: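 Tumor cells were implanted, animals were treated, and survival was followed. The result divides the treated measurement by the vehicle-control measurement.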

[1] = dose: 25.0 mg/kg/injection, schedule: Q04DX003 (ip), vehicle: Klucel (hydroxypropylcellulose) (HPC)
[2] = dose: 50.0 mg/kg/injection, schedule: Q04DX003 (ip), vehicle: Klucel (hydroxypropylcellulose) (HPC)
[3] = dose: 100.0 mg/kg/injection, schedule: Q04DX003 (ip), vehicle: Klucel (hydroxypropylcellulose) (HPC)
[4] = dose: 200.0 mg/kg/injection, schedule: Q04DX003 (ip), vehicle: Klucel (hydroxypropylcellulose) (HPC)
[5] = dose: 400.0 mg/kg/injection, schedule: Q04DX003 (ip), vehicle: Klucel (hydroxypropylcellulose) (HPC)
[6] = dose: 100.0 mg/kg/injection, schedule: Q04DX002 (ip), vehicle: Klucel (hydroxypropylcellulose) (HPC)
[7] = dose: 200.0 mg/kg/injection, schedule: Q04DX002 (ip), vehicle: Klucel (hydroxypropylcellulose) (HPC)
[8] = dose: 400.0 mg/kg/injection, schedule: Q04DX002 (ip), vehicle: Klucel (hydroxypropylcellulose) (HPC)
[9] = dose: 25.0 mg/kg/injection, schedule: Q01DX009 (ip), vehicle: saline
[10] = dose: 50.0 mg/kg/injection, schedule: Q01DX009 (ip), vehicle: saline
[11] = dose: 100.0 mg/kg/injection, schedule: Q01DX009 (ip), vehicle: saline
[12] = dose: 100.0 mg/kg/injection, schedule: Q04DX002 (ip), vehicle: saline
[13] = dose: 200.0 mg/kg/injection, schedule: Q04DX002 (ip), vehicle: saline

Measured: T/C

CC(C)(O)C(C)(O)c1ccc(Cl)cc1 (stereo not given)
inactive: dose: 25.0 mg/kg/injection, schedule: Q01DX009 (ip), vehicle: saline with Tween-80 93 % of control | [1] 101 % of control | dose: 50.0 mg/kg/injection, schedule: Q01DX009 (ip), vehicle: saline with Tween-80 102 % of control | [2] 101 % of control | dose: 100.0 mg/kg/injection, schedule: Q01DX009 (ip), vehicle: saline with Tween-80 98 % of control | [3] 101 % of control | dose: 200.0 mg/kg/injection, schedule: Q01DX009 (ip), vehicle: saline with Tween-80 104 % of control | [4] 106 % of control | dose: 400.0 mg/kg/injection, schedule: Q01DX009 (ip), vehicle: saline with Tween-80 94 % of control | [5] 95 % of control

O=c1ccccn1CC1(c2ccccc2)OCCO1
inactive: dose: 100.0 mg/kg/injection, schedule: Q01DX009 (ip), vehicle: Klucel (hydroxypropylcellulose) (HPC) 98 % of control | [3] 102 % of control | dose: 200.0 mg/kg/injection, schedule: Q01DX009 (ip), vehicle: Klucel (hydroxypropylcellulose) (HPC) 104 % of control | [4] 96 % of control | dose: 400.0 mg/kg/injection, schedule: Q01DX009 (ip), vehicle: Klucel (hydroxypropylcellulose) (HPC) 100 % of control | [5] 94 % of control

O=c1scc(-c2ccccc2)s1
inactive: [6] 113 % of control | [7] 88 % of control | [8] 106 % of control

CC(=O)NN=C1CCC(=NNC(C)=O)CC1
inactive: dose: 12.5 mg/kg/injection, schedule: Q04DX003 (ip), vehicle: Klucel (hydroxypropylcellulose) (HPC) 97 % of control | [1] 94 % of control | [2] 108 % of control | [3] 110 % of control

CC(=O)c1ccccc1Cc1cccc2c(Cl)cccc12
inactive: [3] 95 % of control | [4] 100 % of control | [5] 88 % of control

O=C(OCCc1ccccc1)c1ccccc1
inactive: dose: 100.0 mg/kg/injection, schedule: Q04DX002 (ip), vehicle: saline with Tween-80 100 % of control | dose: 200.0 mg/kg/injection, schedule: Q04DX002 (ip), vehicle: saline with Tween-80 100 % of control | dose: 400.0 mg/kg/injection, schedule: Q04DX002 (ip), vehicle: saline with Tween-80 103 % of control

NC(=O)Nc1ccccc1F
inactive: [6] 106 % of control | [7] 100 % of control | [8] 100 % of control

Nc1nc(N)c(-c2ccc(Cl)c(Cl)c2)c(COc2cccc(CNC(=O)c3cccc(S(=O)(=O)F)c3)c2)n1
inactive: [9] 110 % of control | [10] 102 % of control | [11] 98 % of control | dose: 200.0 mg/kg/injection, schedule: Q01DX009 (ip), vehicle: saline 102 % of control | dose: 400.0 mg/kg/injection, schedule: Q01DX009 (ip), vehicle: saline 105 % of control

CN(C)c1ccc(/C=C/C=N/Nc2nnc(N/N=C/C=C/c3ccc(N(C)C)cc3)c3ccccc23)cc1
inactive: dose: 50.0 mg/kg/injection, schedule: Q01DX001 (ip), vehicle: other 109 % of control | dose: 100.0 mg/kg/injection, schedule: Q01DX001 (ip), vehicle: other 100 % of control | dose: 200.0 mg/kg/injection, schedule: Q01DX001 (ip), vehicle: other 103 % of control | dose: 400.0 mg/kg/injection, schedule: Q01DX001 (ip), vehicle: other 100 % of control

CC[CH2][Sn]([CH2]CC)[CH2]CC.CC[CH2][Sn]([CH2]CC)[CH2]CC
inactive: dose: 12.5 mg/kg/injection, schedule: Q01DX009 (sc), vehicle: olive oil, sesame oil, peanut oil 97 % of control | dose: 25.0 mg/kg/injection, schedule: Q01DX009 (sc), vehicle: olive oil, sesame oil, peanut oil 100 % of control | dose: 25.0 mg/kg/injection, schedule: Q04DX002 (sc), vehicle: olive oil, sesame oil, peanut oil 102 % of control | dose: 50.0 mg/kg/injection, schedule: Q04DX002 (sc), vehicle: olive oil, sesame oil, peanut oil 102 % of control | dose: 100.0 mg/kg/injection, schedule: Q04DX002 (sc), vehicle: olive oil, sesame oil, peanut oil 115 % of control

CN(C)CCC(=O)c1ccc(Cl)cc1
inactive: dose: 50.0 mg/kg/injection, schedule: Q01DX001 (ip), vehicle: saline 101 % of control | [10] 95 % of control and 117 % of control | dose: 100.0 mg/kg/injection, schedule: Q01DX001 (ip), vehicle: saline 101 % of control | [11] 99 % of control and 103 % of control | [12] 95 % of control and 103 % of control | dose: 200.0 mg/kg/injection, schedule: Q01DX001 (ip), vehicle: saline 101 % of control | [13] 93 % of control and 90 % of control

COc1ccc(CCNC(=O)c2ccccc2N=Cc2cc(Cl)cc(Cl)c2O)cc1OC
inactive: dose: 75.0 mg/kg/injection, schedule: Q01DX009 (ip), vehicle: Klucel (hydroxypropylcellulose) (HPC) 94 % of control | dose: 150.0 mg/kg/injection, schedule: Q01DX009 (ip), vehicle: Klucel (hydroxypropylcellulose) (HPC) 96 % of control | dose: 300.0 mg/kg/injection, schedule: Q01DX009 (ip), vehicle: Klucel (hydroxypropylcellulose) (HPC) 96 % of control

CC(C)(C)OC(=O)C(CC(=O)O)NC(=O)OCc1ccccc1 (stereo not given) (tested in a mixture with another compound)
inactive: [9] 101 % of control | dose: 25.0 mg/kg/injection, schedule: Q04DX003 (ip), vehicle: saline 94 % of control | [10] 104 % of control | dose: 50.0 mg/kg/injection, schedule: Q04DX003 (ip), vehicle: saline 94 % of control | [11] 106 % of control | dose: 100.0 mg/kg/injection, schedule: Q04DX003 (ip), vehicle: saline 100 % of control and 91 % of control

CCCN(CCC)CCCC#N
inactive: dose: 100.0 mg/kg/injection, schedule: Q04DX003 (ip), vehicle: saline with Tween-80 95 % of control | dose: 200.0 mg/kg/injection, schedule: Q04DX003 (ip), vehicle: saline with Tween-80 93 % of control

CCN(CC)Cc1ccccc1COC(=O)c1cccc(C)c1
inactive: dose: 50.0 mg/kg/injection, schedule: Q04DX002 (ip), vehicle: saline 93 % of control | [12] 90 % of control | [13] 93 % of control

Cc1c(Cl)ccc2c(C(=O)O)cc(-c3ccc(Cl)cc3)nc12
inactive: dose: 100.0 mg/kg/injection, schedule: Q01DX001 (ip), vehicle: carboxymethylcellulose (CMC) 100 % of control | dose: 200.0 mg/kg/injection, schedule: Q01DX001 (ip), vehicle: carboxymethylcellulose (CMC) 94 % of control | dose: 400.0 mg/kg/injection, schedule: Q01DX001 (ip), vehicle: carboxymethylcellulose (CMC) 92 % of control
